From patent publication US20110165266A1 (priority 2008, published 2011)

Test system: ASLV-A vector RCASBP(A)-AP
Type: cell-based, avian sarcoma and leukosis virus (ASLV-A)

[O-][Cl+2]([O-])O [chlorate]
influence on infection by ASLV-A vector: did not influence infection
